In PMC6858373 (Scientific Reports, 2019):
Where two headings read alike, the source gives them in different places.

Legend:
in vitro = conditions: human
Clone V cells = conditions: human
[1] = target: T1, FGF14:Nav1.6 C-tail complex (Homo sapiens, UniProt Q92915+Q9UQD0); experiment: Split-luciferase complementation assay (LCA) in Clone V double stable HEK293 cells; type: cell-based; conditions: for Split Luciferase Assay Z-score Set 1 / Split Luciferase Assay % Lum Set 1 / Split Luciferase Assay Z-score Set 2 / Split Luciferase Assay %Lum Set 2: CC_NCI screening; for Split Luciferase Assay Z-score Set 1 / Split Luciferase Assay % Lum Set 1: biological replicate Set 1; for Split Luciferase Assay Z-score Set 1 / Split Luciferase Assay Z-score Set 2: normalized to on-plate 0.3% DMSO controls; for Split Luciferase Assay % Lum Set 1 / Split Luciferase Assay %Lum Set 2: normalized to on-plate 0.3% DMSO controls (n=16 per plate); for Split Luciferase Assay Z-score Set 2 / Split Luciferase Assay %Lum Set 2: biological replicate Set 2; for Split Luciferase Assay %Lum Avg: average of Set 1 and Set 2, normalized to 0.3% DMSO controls
T1 construct: polymerase chain reaction (PCR) amplification of the FGF14 open reading frame (nt 1–855); C-terminal fragment of Nav1.6 (amino acids 1763–1976) fused with CD4ΔC-tail (amino acids 1–395); expressed in transfected cells

[2] = target: full-length P. pyralis luciferase (Photinus pyralis, UniProt P08659, K549A/L550V/N119G/N50D/S548I); type: cell-based; conditions: CC_NCI screening; normalized to on-plate 0.3% DMSO controls
Sequence of full-length P. pyralis luciferase (P08659 whole entry N50D/N119G/S548I/K549A/L550V, looked up): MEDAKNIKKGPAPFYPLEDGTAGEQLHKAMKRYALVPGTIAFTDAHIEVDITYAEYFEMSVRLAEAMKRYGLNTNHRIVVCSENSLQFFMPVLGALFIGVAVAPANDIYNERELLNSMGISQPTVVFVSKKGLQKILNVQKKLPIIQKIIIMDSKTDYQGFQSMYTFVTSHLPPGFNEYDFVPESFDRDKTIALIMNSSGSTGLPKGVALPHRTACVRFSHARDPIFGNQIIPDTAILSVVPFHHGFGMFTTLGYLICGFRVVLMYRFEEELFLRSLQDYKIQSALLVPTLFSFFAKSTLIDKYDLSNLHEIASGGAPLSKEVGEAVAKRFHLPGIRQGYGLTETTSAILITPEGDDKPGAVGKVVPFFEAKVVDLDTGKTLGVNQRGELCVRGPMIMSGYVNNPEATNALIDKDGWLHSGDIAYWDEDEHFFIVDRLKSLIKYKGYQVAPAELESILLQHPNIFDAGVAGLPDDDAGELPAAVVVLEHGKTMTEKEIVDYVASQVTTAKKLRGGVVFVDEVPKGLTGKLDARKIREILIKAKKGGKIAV

T1 sequence (Q92915 1-252 isoform Q92915-2): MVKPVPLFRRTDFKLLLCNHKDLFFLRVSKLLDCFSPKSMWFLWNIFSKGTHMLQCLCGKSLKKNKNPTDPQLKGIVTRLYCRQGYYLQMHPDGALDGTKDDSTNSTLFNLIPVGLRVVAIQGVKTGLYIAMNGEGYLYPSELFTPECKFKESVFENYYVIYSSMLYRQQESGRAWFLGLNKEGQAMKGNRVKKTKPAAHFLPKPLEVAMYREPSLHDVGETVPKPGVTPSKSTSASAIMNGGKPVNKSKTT
T1 sequence (Q9UQD0 1763-1976 limits assumed): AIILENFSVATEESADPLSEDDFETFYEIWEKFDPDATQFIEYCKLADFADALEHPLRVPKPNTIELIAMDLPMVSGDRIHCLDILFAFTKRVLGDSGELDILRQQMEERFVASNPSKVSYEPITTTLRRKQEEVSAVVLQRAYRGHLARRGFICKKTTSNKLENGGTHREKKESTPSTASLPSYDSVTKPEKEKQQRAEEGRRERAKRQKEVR

Row | Compound | viability at 16 h, 30 µM (in vitro) [%] | Toxicity Assay Z-score (CTB cell viability) (Clone V cells; 16 h, 30 µM) | Split Luciferase Assay Z-score Set 1 [1] | Split Luciferase Assay % Lum Set 1 [1] [%] | Split Luciferase Assay Z-score Set 2 [1] | Split Luciferase Assay %Lum Set 2 [1] [%] | Split Luciferase Assay %Lum Avg [1] [%] | Luciferase Assay % Lum (full-length luciferase counter-screen) [2] [%] | Luciferase Assay Z-score (full-length luciferase counter-screen) [2] | viability at 16 h, 30 µM (in vitro; Clone V cells) [%] | viability (in vitro) [%] | Toxicity Assay Z-score (CTB cell viability) (Clone V cells) | Z-score (LCA primary screening) ([1]; 30 µM, 384-well, average of primary screening (n = 2), vs on-plate 0.3% DMSO) | EMax (% Luminescence) ([1]; agonists, Clone V cells, 384-well, normalized to DMSO) | EC50 ([1]; estimated, 8-point dose response 0.25-30 µM, n = 4 per concentration, library compounds, read-out: EC50) [µM]
1 | CC(C)Cn1cnc2c(N)nc3ccccc3c21 [Imiquimod] | 107 | 1.03 | 1.35 | 116.65 | 1.01 | 112.35 | 114.50 | 104.72 | 0.60 |  |  |  |  |  | 
2 | CN(Cc1cnc2nc(N)nc(N)c2n1)c1ccc(C(=O)N[C@@H](CCC(=O)O)C(=O)O)cc1 [Methotrexate] |  | 0.27 | 0.73 | 109.04 | 0.24 |  | 106.01 | 94.27 | -0.73 | 102 |  |  |  |  | 
3 | Clc1ccc(C(c2ccccc2Cl)C(Cl)Cl)cc1 (centres unmarked) [Mitotane] | 93.9 | -0.85 | -6.12 | 24.24 | -5.17 | 36.41 | 30.33 | 54.78 | -5.79 |  |  |  |  |  | 
4 | NC(=O)c1ccc(N(C(N)=O)c2c(F)cccc2F)nc1-c1ccc(F)cc1F [VX-702] | 105 | 0.75 | 1.35 | 116.65 | -2.63 | 67.62 | 92.13 | 93.91 | -0.78 |  |  |  |  |  | 
5 | C#Cc1cccc(Nc2ncnc3cc(OCCOC)c(OCCOC)cc23)c1 [ERLOTINIB] |  | 0.46 | -0.76 | 90.56 | -1.53 | 81.14 | 85.85 | 80.96 | -2.44 | 103 |  |  |  |  | 
6 | CC(C)C[C@H](NC(=O)[C@H](CCc1ccccc1)NC(=O)CN1CCOCC1)C(=O)N[C@@H](Cc1ccccc1)C(=O)N[C@@H](CC(C)C)C(=O)[C@@]1(C)CO1 [Carfilzomib] |  |  | -0.68 | 91.64 | -1.62 | 80.10 | 85.87 | 97.18 | -0.36 |  | 108 | 1.05 |  |  | 
7 | CC(=O)O[C@H]1C(=O)[C@@]2(C)[C@H]([C@H](OC(=O)c3ccccc3)[C@]3(O)C[C@H](OC(=O)[C@H](O)[C@@H](NC(=O)c4ccccc4)c4ccccc4)C(C)=C1C3(C)C)[C@]1(OC(C)=O)CO[C@@H]1C[C@@H]2O [Paclitaxel] | 111 | 1.59 | -1.03 | 87.29 | -0.43 | 94.67 | 90.98 | 114.27 | 1.83 |  |  |  |  |  | 
8 | O=C(O)CCCc1ccc(N(CCCl)CCCl)cc1 [Chlorambucil, reference compound] |  |  | 13.12 | 262.32 | 11.67 | 243.43 | 252.88 | 97.90 | -0.27 |  | 105 | 0.71 | 12.39 | 252.88 | 16.4
